Data: patent US20020045606A1, “Esters of vitamin D3 and uses thereof” (priority 1999, published 2002)

Legend:
UMR 106 cells [1] = test: Metabolism of 1α,25(OH)2-16-ene-D3 analogs into less polar fatty acid ester metabolites in bone cells; assay type: in vitro ADME, rat; conditions: 10 μM analog incubated 24 h in UMR 106 cells; HPLC (FIG. 1)
Description: As described herein, various analogs of 1α,25(OH)2-D3, such as 1α,25(OH)2-16-ene-D3 analogs are metabolized into less polar metabolites in the rat osteosarcoma cell line UMR 106. UMR 106 cells were cultured in an humidified atmosphere at 37° C. in 95% air and 5% CO2. MacCoy's culture medium, containing 10% fetal calf serum (FCS), antibiotics (100 IU/mL penicillin and 100 μg/mL streptomycin) and […], was used. Cells became confluent ten days after seeding, and were then incubated with analog. Samples (structures shown in Table 2) of 1α,25(OH)2-16-ene-D3, 1α,25(OH)2-16-ene-3-epi-D3, 1α,25(OH)2-16-ene-20-epi-D3, 1α,25(OH)2-16-ene-20-epi-3-epi-D3, and 1α,25(OH)2-16-ene-23-yne-D3 were dissolved in ethanol to a final concentration of 10 μM and incubated in 50 mL for 24 h. Each analog was incubated in three culture bottles. Incubation was stopped by adding 10 mL methanol to each culture bottle. Culture bottles were stored at −20° C.
Lipid extraction was initiated by first adding two volumes of methanol to each culture bottle from Example I. The protein precipitate was separated from the supernatant by centrifugation at 3000 rpm at 4° C. for 15 min. The supernatant was mixed with four volumes of dichloromethane in a separatory funnel. The lower organic phase was collected and dried under nitrogen gas at 50° C. After reconstitution in 10% isopropanol/hexane, the lipid extract was analyzed by high-performance liquid chromatography (HPLC).
HPLC was performed with a Waters System Controller (Model 600E) equipped with a photodiode array detector (Model PDA 990) to monitor UV absorption at 265 nm. A Zorbax SIL 9.4×250 mm column (DuPont, Wilmington, Del.) was used for all straight phase systems. The corresponding analog was added to each lipid extract and the solutions were then subjected to a straight phase HPLC system using 10% isopropanol/hexane at a flow rate of 2 mL/min. (HPLC system I). Fractions were collected from 0 min. to 12 min. These fractions were further subjected to a straight phase HPLC system using 2% isopropanol/hexane at a flow rate of 2 mL/min. (HPLC system II).

UMR 106 cells [2] = test: Distribution of esters and substrates between cells and media, UMR 106; assay type: in vitro ADME, rat; conditions: lipid extraction from media and cells separately, HPLC system I
Description: Peaks H2-A and H3-A were obtained and purified as described in Example II. In addition, UMR 106 cells were incubated with 1α,25(OH)2-16-ene-20-epi-D3 and 1α,25(OH)2-16-ene-20-epi-3-epi-D3, as described in Example I.
The lipid extraction was carried out from media and cells separately and together, as described in Example II. HPLC was performed with a Waters System Controller (Model 600E) equipped with a photodiode array detector (Model PDA 990) to monitor UV absorption at 265 nm. A Zorbax SIL 9.4×250 mm column (DuPont, Wilmington, Del.) was used for all straight phase systems. Each lipid extract was analyzed using HPLC system I.

Compound	amount of less polar fatty acid ester metabolites produced (UMR 106 cells [1])	distribution between cells and media (UMR 106 cells [2])
C=C1/C(=C\C=C2/CCC[C@]3(C)C([C@H](C)CCCC(C)(C)O)=CCC23)C[C@H](O)C[C@@H]1O (stereo partly drawn) [1α,25(OH)2-16-ene-3-epi-D3]	slightly greater amounts of one of the less polar metabolites	–
C=C1/C(=C\C=C2/CCC[C@]3(C)C([C@@H](C)CCCC(C)(C)O)=CCC23)C[C@H](O)C[C@@H]1O (stereo partly drawn) [1α,25(OH)2-16-ene-20-epi-3-epi-D3]	enhanced even further	distributed primarily in the media
C=C1/C(=C\C=C2/CCC[C@]3(C)C([C@@H](C)CCCC(C)(C)O)=CCC23)C[C@@H](O)C[C@@H]1O (stereo partly drawn) [1α,25(OH)2-16-ene-20-epi-D3]	a greater increase in the amount of the less polar fatty acid ester metabolites	distributed primarily in the media
C=C1/C(=C\C=C2/CCC[C@]3(C)C([C@@H](C)CC#CC(C)(C)O)=CCC23)C[C@@H](O)C[C@@H]1O (stereo partly drawn) [1α,25(OH)2-16-ene-23-yne-D3]	reduced	–
C=C1/C(=C\C=C2/CCC[C@]3(C)C([C@H](C)CCCC(C)(C)O)=CCC23)C[C@@H](O)C[C@@H]1O (stereo partly drawn) [1α,25(OH)2-16-ene-D3]	production of the less polar fatty acid ester metabolites	–
